Assay results from patent publication US4490370A, “Naphthylglycyl cephalosporin derivatives” (priority 1983, dated 1984).
In brackets after ≈: the same amount, converted by molar mass. Counter-ions that a name gives are not always drawn. Like-named read-outs stand apart in the source and are kept apart here.

Tests used:
Format in all cases: cell-based
Strep. PN = experiment: Agar dilution MIC, Strep. PN; details: Table I, strain PARK; read-out: MIC
Source text: (§1) The following Tables present typical minimum inhibitory concentrations (MIC's) in μg/ml for the compounds when evaluated against the indicated microorganisms.

Staph. aureus = experiment: Agar dilution MIC, Staph. aureus; details: Staphylococcus aureus
Source text: as §1

H. influ. = experiment: Agar dilution MIC, H. influenza; details: read-out: MIC
Source text: as §1

Klebsiella = experiment: Agar dilution MIC, Klebsiella; details: Klebsiella; Table I, strain X26; read-out: MIC
Source text: (§2) A typical and preferred compound provided by this invention is 7-(2-naphthylglycylamido)-3-methyl-3-cephem-4-carboxylic acid, the compound of Example 3. The antibacterial activity of this compound and several others of the invention has been determined in standard in vitro agar dilution assays against a variety of gram positive microorganisms. The following Tables present typical minimum inhibitory concentrations (MIC's) in μg/ml for the compounds when evaluated against the indicated microorganisms. MIC's for several known compounds are also presented for comparison.

Staph. epi = experiment: Agar dilution MIC, Staph. epi; details: read-out: MIC
Source text: as §1

Strep. A = experiment: Agar dilution MIC, Strep. A; details: Table I, strain C203; read-out: MIC
Source text: as §2

[1] = Table I, strain V41, read-out: MIC
[2] = Table I, strain X1.1, read-out: MIC
[3] = Table I, strain X400, read-out: MIC
[4] = Table II, strain S224, read-out: MIC
[5] = Table II, strain S225, read-out: MIC
[6] = Table II, strain S226, read-out: MIC
[7] = Table II, strain S227, read-out: MIC
[8] = Table II, strain S228, read-out: MIC
[9] = Table II, strain S229, read-out: MIC
[10] = Table II, strain S230, read-out: MIC
[11] = Table II, strain S231, read-out: MIC
[12] = Table II, strain S234, read-out: MIC
[13] = Table II, strain S237, read-out: MIC
[14] = Table II, strain S238, read-out: MIC
[15] = Table II, strain S239, read-out: MIC
[16] = Table II expanded spectrum, strain EPI1

| SMILES | MIC (Strep. PN) | MIC (Staph. aureus; [1]) | MIC (H. influ.; Table I, strain BRUN) | MIC (Klebsiella) | MIC (Staph. epi; Table I, strain 222) | MIC (Staph. epi; Table I, strain EPI1) | MIC (Strep. A) | MIC (Staph. aureus; [4]) | MIC (Staph. aureus; [5]) | MIC (Staph. aureus; [6]) | MIC (Staph. aureus; [7]) | MIC (Staph. aureus; [8]) | MIC (Staph. aureus; [9]) | MIC (Staph. aureus; [10]) | MIC (Staph. aureus; [11]) | MIC (Staph. aureus; [12]) | MIC (Staph. aureus; [13]) | MIC (Staph. aureus; [14]) | MIC (Staph. aureus; [15]) | MIC (H. influ.; Table II, strain M366) | also measured |
| --- | --- | --- | --- | --- | --- | --- | --- | --- | --- | --- | --- | --- | --- | --- | --- | --- | --- | --- | --- | --- | --- |
| N[C@@H](C(=O)NC1C(=O)N2C(C(=O)O)=CCSC12)c1ccc2ccccc2c1 (stereo partly drawn) [Example 12, D-7-(2-Naphthylglycylamido)-3-cephem-4-carboxylic acid trifluoroacetate] | 1 µg/mL | 64 µg/mL | 64 µg/mL | 16 µg/mL | 4 µg/mL | 32 µg/mL | 0.5 µg/mL |  |  |  |  |  |  |  |  |  |  |  |  |  | MIC (Staph. aureus): 4 µg/mL; MIC (Staph. aureus; Table I, strain S13E): 64 µg/mL; MIC (H. influ.; Table I, strain 251): 16 µg/mL |
| CC1=C(C(=O)O)N2C(=O)C(NC(=O)[C@H](N)c3ccc4cc(O)ccc4c3)C2SC1 (stereo partly drawn) [Example 11, D-7-(6-hydroxy-2-naphthylglycyl-amido)-3-methyl-3-cephem-4-carboxylic acid] | 0.25 µg/mL (≈ 0.605 µM) | 8 µg/mL (≈ 19.3 µM) | 8 µg/mL (≈ 19.3 µM) | 4 µg/mL (≈ 9.67 µM) | 1 µg/mL (≈ 2.42 µM) | 4 µg/mL (≈ 9.67 µM) | 0.125 µg/mL (≈ 0.302 µM) | 0.5 µg/mL (≈ 1.21 µM) | 0.5 µg/mL (≈ 1.21 µM) | 1 µg/mL (≈ 2.42 µM) | 0.5 µg/mL (≈ 1.21 µM) | 0.5 µg/mL (≈ 1.21 µM) | 1 µg/mL (≈ 2.42 µM) | 0.5 µg/mL (≈ 1.21 µM) | 0.5 µg/mL (≈ 1.21 µM) | 1 µg/mL (≈ 2.42 µM) | 1 µg/mL (≈ 2.42 µM) | 1 µg/mL (≈ 2.42 µM) | 1 µg/mL (≈ 2.42 µM) | > 64 µg/mL | MIC (Staph. aureus; [2]): 0.5 µg/mL (≈ 1.21 µM); MIC (Staph. aureus; [3]): 32 µg/mL (≈ 77.4 µM); MIC (H. influ.; Table II, strain R465): 16 µg/mL (≈ 38.7 µM); MIC (H. influ.; Table II, strain STEL): > 64 µg/mL; MIC (Staph. epi; [16]): 4 µg/mL (≈ 9.67 µM); MIC (Staph. epi; Table II, strain 219): 0.5 µg/mL (≈ 1.21 µM); MIC (Staph. epi; Table II, strain 269): 2 µg/mL (≈ 4.84 µM); MIC (Staph. epi; Table II, strain 270): 4 µg/mL (≈ 9.67 µM); MIC (Staph. epi; Table II, strain 285): 2 µg/mL (≈ 4.84 µM); MIC (Staph. epi; Table II, strain 286): 1 µg/mL (≈ 2.42 µM) |
| COCC1=C(C(=O)O)N2C(=O)C(NC(=O)[C@H](N)c3ccc4ccccc4c3)C2SC1 (stereo partly drawn) [Example 8, 7-(2-Naphthylglycylamido)-3-methoxymethyl-3-cephem-4-carboxylic acid] |  |  |  |  |  |  |  | 0.5 µg/mL (≈ 1.17 µM) | 0.5 µg/mL (≈ 1.17 µM) | 1 µg/mL (≈ 2.34 µM) | 0.5 µg/mL (≈ 1.17 µM) | 0.5 µg/mL (≈ 1.17 µM) | 1 µg/mL (≈ 2.34 µM) | 0.5 µg/mL (≈ 1.17 µM) | 0.5 µg/mL (≈ 1.17 µM) | 1 µg/mL (≈ 2.34 µM) | 0.5 µg/mL (≈ 1.17 µM) | 1 µg/mL (≈ 2.34 µM) | 1 µg/mL (≈ 2.34 µM) | > 64 µg/mL | MIC (H. influ.; Table II, strain 76): 8 µg/mL (≈ 18.7 µM); MIC (H. influ.; Table II, strain 105): 8 µg/mL (≈ 18.7 µM); MIC (H. influ.; Table II, strain 158): 8 µg/mL (≈ 18.7 µM); MIC (H. influ.; Table II, strain 164): 8 µg/mL (≈ 18.7 µM); MIC (H. influ.; Table II, strain 169): 8 µg/mL (≈ 18.7 µM); MIC (H. influ.; Table II, strain 171): 8 µg/mL (≈ 18.7 µM); MIC (H. influ.; Table II, strain 312): 8 µg/mL (≈ 18.7 µM); MIC (H. influ.; Table II, strain 1930): 16 µg/mL (≈ 37.4 µM); MIC (H. influ.; Table II, strain 4842): 8 µg/mL (≈ 18.7 µM); MIC (H. influ.; Table II, strain C.L.): 8 µg/mL (≈ 18.7 µM); MIC (H. influ.; Table II, strain HESS): 8 µg/mL (≈ 18.7 µM); MIC (H. influ.; Table II, strain R465): 16 µg/mL (≈ 37.4 µM); MIC (H. influ.; Table II, strain STEL): > 64 µg/mL; MIC (Staph. epi; [16]): 4 µg/mL (≈ 9.36 µM); MIC (Staph. epi; Table II, strain 219): 0.5 µg/mL (≈ 1.17 µM); MIC (Staph. epi; Table II, strain 269): 2 µg/mL (≈ 4.68 µM); MIC (Staph. epi; Table II, strain 270): 2 µg/mL (≈ 4.68 µM); MIC (Staph. epi; Table II, strain 285): 1 µg/mL (≈ 2.34 µM); MIC (Staph. epi; Table II, strain 286): 0.5 µg/mL (≈ 1.17 µM) |
| CC1=C(C(=O)O)N2C(=O)C(NC(=O)[C@H](N)c3ccc4cc(Cl)ccc4c3)C2SC1 (stereo partly drawn) [Example 7, D-7-(6-chloronaphth-2-ylglycylamido)-3-methyl-3-cephem-4-carboxylic acid] | 0.25 µg/mL (≈ 0.579 µM) | 8 µg/mL (≈ 18.5 µM) | 32 µg/mL (≈ 74.1 µM) | 8 µg/mL (≈ 18.5 µM) | 0.5 µg/mL (≈ 1.16 µM) | 4 µg/mL (≈ 9.26 µM) | 0.06 µg/mL (≈ 0.139 µM) | 0.5 µg/mL (≈ 1.16 µM) | 0.5 µg/mL (≈ 1.16 µM) | 1 µg/mL (≈ 2.32 µM) | 0.5 µg/mL (≈ 1.16 µM) | 0.5 µg/mL (≈ 1.16 µM) | 1 µg/mL (≈ 2.32 µM) | 0.5 µg/mL (≈ 1.16 µM) | 0.25 µg/mL (≈ 0.579 µM) | 1 µg/mL (≈ 2.32 µM) | 0.5 µg/mL (≈ 1.16 µM) | 1 µg/mL (≈ 2.32 µM) | 1 µg/mL (≈ 2.32 µM) | > 64 µg/mL | MIC (Staph. aureus; [2]): 0.25 µg/mL (≈ 0.579 µM); MIC (Staph. aureus; [3]): 64 µg/mL (≈ 148 µM); MIC (H. influ.; Table II, strain 76): 16 µg/mL (≈ 37 µM); MIC (H. influ.; Table II, strain 1930): 16 µg/mL (≈ 37 µM); MIC (H. influ.; Table II, strain C.L.): 32 µg/mL (≈ 74.1 µM); MIC (H. influ.; Table II, strain HESS): 32 µg/mL (≈ 74.1 µM); MIC (H. influ.; Table II, strain R465): 32 µg/mL (≈ 74.1 µM); MIC (H. influ.; Table II, strain STEL): > 64 µg/mL; MIC (Staph. epi; [16]): 8 µg/mL (≈ 18.5 µM); MIC (Staph. epi; Table II, strain 269): 4 µg/mL (≈ 9.26 µM); MIC (Staph. epi; Table II, strain 270): 4 µg/mL (≈ 9.26 µM); MIC (Staph. epi; Table II, strain 285): 2 µg/mL (≈ 4.63 µM); MIC (Staph. epi; Table II, strain 286): 1 µg/mL (≈ 2.32 µM) |
